In one series the test system is HT-29 cells. In kind it is cell-based.
The subject of another series is mice. Particulars: in mice, intravenously; cited from earlier work.
Another series has as its system rats. The note with it: in rats; cited from earlier work.

This is an account of results in patent publication US20120308663A1, “LIPID NANOCAPSULES, METHOD FOR PREPARING SAME AND USE THEREOF AS A DRUG” (priority 2009, published 2012).

Experimental for HT-29 cells: The IC50 was calculated as being the concentration of SN38-LNCs, of SN38 or unloaded LNCs causing 50% cell death.

As for `CCc1c2c(nc3ccc(O)cc13)-c1cc3c(c(=O)n1C2)COC(=O)[C@]3(O)CC` [free SN38, 7-ethyl-10-hydroxycamptothecin], the “Cytotoxicity relative to CPT11 (times greater)” value in the series on HT-29 cells is “approximately 250 times”.
Consider “polyethyleneglycol-660 2-hydroxystearate [Solutol® HS 15]”, for which the DL50 with mice is recorded as greater than 3.16 g/kg.
Consider `CCOCCOCCO` [Transcutol®HP, diethyleneglycol monoethyl ether], for which the DL50 with rats is on record as greater than 5 g/kg.
